# Data: patent US7413747B2, “Transdermal therapeutic system for treating Parkinsonism” (LTS Lohmann Therapie-Systeme AG, priority 1998, dated 2008)
# Columns and labels:
# [1] = Solubility of the active substance in polyacrylate adhesives; format: physicochemical; details: polyacrylate adhesive matrix; ambient temperature
# Source text: (§1) The transdermal therapeutic system according to this invention, of the kind mentioned at the beginning and developed in accordance with the above, is essentially characterized by a matrix on the basis of an acrylate-based or silicone-based non-aqueous polymer adhesive system having a solubility for the free D2-agonist base (−)-5,6,7,8-tetrahydro-6-[propyl-[2-(2-thienyl)ethyl]amino]-1-naphthalenol of >5% (w/w), which matrix is substantially free of inorganic silicate particulates. The solubility is determined at ambient temperature.
# In systems wherein the active substance is only partially dissolved the concentration of the dissolved active substance is equal to the saturation concentration and thus has the maximum thermodynamic activity under these conditions. In general, it is, above all, the kind and quantity of the free functional groups in the adhesive which are important for the dissolving capacity of the polyacrylate adhesives. […] Such a system must therefore contain the active substance in a concentration of at least 10% (w/w) in order to come sufficiently near to the maximal thermodynamic activity. For the hydrochloride of (−)-5,6,7,8-tetrahydro-6-[propyl-[2-(2-thienyl)ethyl]amino]-1-naphthalenol the solubility in polyacrylates having 5-10% (w/w) is much lower, so that in such systems the active substance is preferably only partially dissolved.
# [2] = Permeation studies utilizing Franz diffusion cells and human epidermis; format: in vitro ADME; details: skin, due to hydrophilic properties
# Source text: The finished plasters were used in permeation studies utilizing Franz diffusion cells and human epidermis. It will be seen that all plasters are capable of systemically providing a sufficient amount of active substance through the skin. […] It will also be seen that the silicone adhesive-based plasters, although having a considerably lower active substance content, deliver approximately the same quantity of active substance via the skin as the systems based on polyacrylate adhesives.
# [3] = Solubility (saturation capacity) of the active substance in silicone adhesives; format: physicochemical; details: for saturation capacity in silicone adhesives: silicone adhesive without solubility-increasing additive
# Source text: as §1
# This is sufficient to dissolve 10 mg active substance in a 20 cm^2 large patch having a coat weight of the matrix of 50 g/m^2. Since with transdermal patch systems one must always assume that only about 50% of the active substance employed will be available during the period of application, given a daily dose in the range of 1-10 mg of the active substance a plaster size of between 2 and 40 cm^2 can be expected to be sufficient to achieve therapeutic plasma levels.
SMILES,solubility in polyacrylate adhesives [1],passing the barrier of the stratum corneum [2],saturation capacity in silicone adhesives [3],solubility in amine-resistant silicone adhesive ([3]; about 1.5-5% (w/w) of polyvinylpyrrolidone in the adhesive),dissolving capacity for the free base in silicone adhesive matrices ([3]; silicone adhesive admixed with a substance having increased solubility for the active substance (e.g. polyvinylpyrrolidone))
"CCCN(CCc1cccs1)C1CCc2c(O)cccc2C1.Cl (single isomer, unassigned; (-)) [(−)-5,6,7,8-tetrahydro-6-[propyl-[2-(2-thienyl)ethyl]amino]-1-naphthalenol hydrochloride]",5-10 % (w/w),only poorly,practically insoluble,,
"CCCN(CCc1cccs1)C1CCc2c(O)cccc2C1 (single isomer, unassigned; (-)) [(−)-5,6,7,8-tetrahydro-6-[propyl-[2-(2-thienyl)ethyl]amino]-1-naphthalenol]",15-35 % (w/w),,about 5 % (w/w),10-15 % (w/w),up to 40 % (w/w)
